Consider two molecules from patent US7312322B1, “Genetic sequences encoding steroid and juvenile hormone receptor polypeptides and insecticidal modalities therefor” (priority 1998, dated 2007).

Data set [1] deals with T1, chimeric EcR polypeptide encoded by plasmid pSGLD (UniProt O18531+P34021, A395P/D402E/DEL360-378/E403D/F552Y/I397C/I665A/INS379CATEI/K578E/L663I/M356I/Q393S/Q448S/Q580E/R443K/S415P/S515N/S605P/T357Q/T417S/T456H/V458A/Y611F).
T1 construct: expressed in transfected cells
The experiment in a line: CHO cell co-transfection CAT reporter assay, chimeric EcR plasmid pSGLD. The class given is cell-based, D. melanogaster / L. cuprina. The conditions noted are these: 10 μM and 50 μM Muristerone A, comparable to D. melanogaster base EcR polypeptide (FIG. 2). The method, then:
(§1) FIG. 2 is a copy of a graphical representation showing the activity of plasmid pSGLD and pSGDL, containing chimeric EcR polypeptide subunits of insect ecdysone receptors, produced as described in the Examples. Cotransfection assays were performed as described in the Examples using plasmids pSGLD and pSGDL and the CAT reporter plasmid p(EcRE)7-CAT (1 ug/ml) and an independent reporter, pPGKLacZ at 1 μg/ml each. CAT/b-Gal (%) refers to CAT reporter activity expressed as a percentage relative to β-galactosidase activity produced by the internal control reporter, pPGKLacZ.
(§2) In one exemplification of this embodiment, plasmids pSGLD and pSGDL are produced comprising coding regions derived from the EcR polypeptides of the D. melanogaster and L. cuprina ecdysone receptors. In plasmid pSGLD, the 5′-end of the open reading frame of the D. melanogaster sequence, encoding the N-terminal portion of the EcR polypeptide of the D. melanogaster ecdysone receptor to the end of the DNA-binding domain of said polypeptide, is fused to the 3′-end of the open reading frame of the L. cuprina sequence, encoding the C-terminal portion of the EcR polypeptide of the L. cuprina ecdysone receptor, from the D domain and hormone-binding domain to the carboxyl terminus. […]
(In general: A reporter such as luciferase makes a cellular process visible.)

In data set [2] the target is T2, EcR polypeptide of the L. cuprina ecdysone receptor (Lucilia cuprina, UniProt O18531).
T2 construct: Plasmid pF3 thus contains the complete open reading frame of the cDNA encoding the EcR polypeptide of the L. cuprina ecdysone receptor; expressed in transfected cells; host or cells: CHO cells
T2 sequence (O18531 1-757): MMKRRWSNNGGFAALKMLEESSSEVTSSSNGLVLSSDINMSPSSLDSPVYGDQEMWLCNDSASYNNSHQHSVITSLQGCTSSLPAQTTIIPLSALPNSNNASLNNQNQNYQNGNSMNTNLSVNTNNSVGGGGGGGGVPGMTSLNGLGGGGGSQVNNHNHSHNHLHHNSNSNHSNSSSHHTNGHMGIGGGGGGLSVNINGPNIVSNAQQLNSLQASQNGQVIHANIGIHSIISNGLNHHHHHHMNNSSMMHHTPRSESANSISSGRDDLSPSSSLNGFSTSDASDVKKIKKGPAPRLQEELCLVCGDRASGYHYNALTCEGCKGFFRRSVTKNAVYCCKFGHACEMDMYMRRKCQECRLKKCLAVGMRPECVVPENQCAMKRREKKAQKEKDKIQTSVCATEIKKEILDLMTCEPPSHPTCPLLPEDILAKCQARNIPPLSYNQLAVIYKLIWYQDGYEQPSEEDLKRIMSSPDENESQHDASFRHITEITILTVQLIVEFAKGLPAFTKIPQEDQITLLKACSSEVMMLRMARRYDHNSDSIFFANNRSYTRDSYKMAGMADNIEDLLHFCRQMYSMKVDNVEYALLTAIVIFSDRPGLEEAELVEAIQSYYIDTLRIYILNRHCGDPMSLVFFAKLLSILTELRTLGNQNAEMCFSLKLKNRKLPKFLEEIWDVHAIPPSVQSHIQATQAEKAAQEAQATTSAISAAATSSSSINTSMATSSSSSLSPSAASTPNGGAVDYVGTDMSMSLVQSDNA
The data set is described as follows: CHO cell co-transfection CAT reporter assay, pSGLcEcR. The class given is cell-based. The settings on record: CHO cells, 48 h after transfection, average of three experiments (FIG. 1). The method, then: CHO cells were co-transfected with a mixture comprising the following DNAs, lysed and assayed for CAT and β-galactosidase enzyme activity, as described in the preceding Examples: • (1) one of the expression plasmids designated pSGDmEcR, or pSGLcEcR, or the parental expression plasmid pSG5 as a negative control, at a concentration of 1 μg/ml; and • (2) the CAT reporter plasmid p(EcRE)5CAT at a concentration of 1 μg/ml; and • (3) an independent LacZ reporter plasmid, pPGKLacZ, at a concentration of 1 μg/ml, included as a control to monitor transfection efficiency.
CAT reporter gene expression was induced with 10 μM or 50 μM Muristerone A. In control samples, cells received only the carrier ethanol in place of Muristerone A.
ELISA was used to quantify the synthesis of CAT and β-galactosidase enzymes, in extracts of cells forty eight hours after transfection. Account was taken of the variation between experiments, by normalizing the level of CAT enzyme to the level of β-galactosidase enzyme present in the same extract. Fold induction represents the normalized values for CAT gene expression in cells transfected with pSGDmEcR, pSGLcEcR or pSG5 in the presence of hormone divided by the normalized values for CAT gene expression in cells transfected with the same plasmid but in the absence of hormone. […]

The target of data set [3] is T3, chimeric EcR polypeptide encoded by plasmid pSGDL (Drosophila melanogaster, UniProt P34021, A242T/A248V/C246S/D219E/E244D/N243S/R304H/S245A/S251I/S295N/V221A/V259L/Y240F).
T3 construct: expressed in transfected cells
T3 sequence (P34021 other isoform, or with tags, fused parts or gaps with the stated changes): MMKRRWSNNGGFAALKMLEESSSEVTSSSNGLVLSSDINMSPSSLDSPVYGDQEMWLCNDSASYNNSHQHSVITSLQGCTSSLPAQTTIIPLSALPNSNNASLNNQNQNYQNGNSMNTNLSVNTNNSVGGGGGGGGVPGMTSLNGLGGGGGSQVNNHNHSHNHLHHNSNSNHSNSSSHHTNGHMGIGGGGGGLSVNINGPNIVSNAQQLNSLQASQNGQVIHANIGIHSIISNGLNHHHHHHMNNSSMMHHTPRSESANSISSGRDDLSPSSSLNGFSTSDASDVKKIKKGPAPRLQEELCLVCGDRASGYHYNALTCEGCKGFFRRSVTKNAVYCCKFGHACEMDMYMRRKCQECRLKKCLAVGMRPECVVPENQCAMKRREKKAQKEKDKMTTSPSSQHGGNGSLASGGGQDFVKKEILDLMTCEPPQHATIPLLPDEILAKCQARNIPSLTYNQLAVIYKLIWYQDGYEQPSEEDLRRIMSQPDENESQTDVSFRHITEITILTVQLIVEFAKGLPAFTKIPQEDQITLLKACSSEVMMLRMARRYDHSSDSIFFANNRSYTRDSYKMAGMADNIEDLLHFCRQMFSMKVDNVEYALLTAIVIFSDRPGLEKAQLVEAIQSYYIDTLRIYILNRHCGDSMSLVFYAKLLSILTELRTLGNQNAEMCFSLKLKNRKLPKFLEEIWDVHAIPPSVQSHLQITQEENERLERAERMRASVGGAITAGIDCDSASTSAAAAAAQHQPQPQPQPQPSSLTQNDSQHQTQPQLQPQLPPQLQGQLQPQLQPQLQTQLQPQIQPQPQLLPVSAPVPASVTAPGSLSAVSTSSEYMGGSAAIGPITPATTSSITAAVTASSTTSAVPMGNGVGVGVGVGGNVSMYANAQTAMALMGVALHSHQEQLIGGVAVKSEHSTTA
The experiment in a line: CHO cell co-transfection CAT reporter assay, chimeric EcR plasmid pSGDL. The class given is cell-based, L. cuprina / D. melanogaster. The conditions noted are these: 10 μM and 50 μM Muristerone A, comparable to D. melanogaster base EcR polypeptide (FIG. 2). How it is done: as §1, §2

Data set [4] addresses T4, linker and ligand-binding regions of the D. melanogaster EcR polypeptide and partner protein (USP polypeptide) (Drosophila melanogaster, UniProt P34021).
T4 construct: made in house; host or cells: recombinant baculovirus in insect Sf21 and Sf9 cells
T4 sequence (P34021 419-654 limits assumed): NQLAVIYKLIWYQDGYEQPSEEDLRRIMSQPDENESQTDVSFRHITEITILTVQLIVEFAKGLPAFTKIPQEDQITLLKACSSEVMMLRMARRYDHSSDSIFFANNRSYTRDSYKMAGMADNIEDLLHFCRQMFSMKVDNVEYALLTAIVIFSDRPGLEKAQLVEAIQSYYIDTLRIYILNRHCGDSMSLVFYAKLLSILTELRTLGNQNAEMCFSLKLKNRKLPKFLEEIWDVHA
T4 sequence (P20153 239-498 partner limits assumed): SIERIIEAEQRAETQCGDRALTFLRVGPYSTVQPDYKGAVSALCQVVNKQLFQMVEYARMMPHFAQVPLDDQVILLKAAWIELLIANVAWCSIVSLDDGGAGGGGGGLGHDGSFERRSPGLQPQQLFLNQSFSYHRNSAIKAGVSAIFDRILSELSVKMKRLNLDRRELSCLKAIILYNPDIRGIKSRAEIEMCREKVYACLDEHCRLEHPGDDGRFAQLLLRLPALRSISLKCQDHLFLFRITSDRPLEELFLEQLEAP
The data set is described as follows: [3H]ponasterone A binding assay in cells infected by recombinant baculovirus (modified method of Yund et al). The conditions noted are these: compared to the naturally-occurring ecdysone holoreceptor in L. cuprina embryos; no specific binding with control virus. The text has this: The segment of pDmEcR.USP.DUAL which encodes the tagged linker and ligand-binding regions of the EcR polypeptide and partner protein (USP polypeptide) sequences, placed operably under the control of polyhedrin and p10 promoters, respectively, was recombined into a baculovirus genome, by employing the Tn7 transposition system (Luckow et al, (1993). The polypeptide products were then co-expressed in insect Sf21 and Sf9 cells, where they associated into a functional complex.
The correctly-folded and associated complex formed by the truncated Ecr polypeptide and truncated EcR partner protein (USP polypeptide), is used for X-ray and NMR structural analysis and for high-throughput screens.

T1 sequence (P34021+O18531 fused with the stated changes): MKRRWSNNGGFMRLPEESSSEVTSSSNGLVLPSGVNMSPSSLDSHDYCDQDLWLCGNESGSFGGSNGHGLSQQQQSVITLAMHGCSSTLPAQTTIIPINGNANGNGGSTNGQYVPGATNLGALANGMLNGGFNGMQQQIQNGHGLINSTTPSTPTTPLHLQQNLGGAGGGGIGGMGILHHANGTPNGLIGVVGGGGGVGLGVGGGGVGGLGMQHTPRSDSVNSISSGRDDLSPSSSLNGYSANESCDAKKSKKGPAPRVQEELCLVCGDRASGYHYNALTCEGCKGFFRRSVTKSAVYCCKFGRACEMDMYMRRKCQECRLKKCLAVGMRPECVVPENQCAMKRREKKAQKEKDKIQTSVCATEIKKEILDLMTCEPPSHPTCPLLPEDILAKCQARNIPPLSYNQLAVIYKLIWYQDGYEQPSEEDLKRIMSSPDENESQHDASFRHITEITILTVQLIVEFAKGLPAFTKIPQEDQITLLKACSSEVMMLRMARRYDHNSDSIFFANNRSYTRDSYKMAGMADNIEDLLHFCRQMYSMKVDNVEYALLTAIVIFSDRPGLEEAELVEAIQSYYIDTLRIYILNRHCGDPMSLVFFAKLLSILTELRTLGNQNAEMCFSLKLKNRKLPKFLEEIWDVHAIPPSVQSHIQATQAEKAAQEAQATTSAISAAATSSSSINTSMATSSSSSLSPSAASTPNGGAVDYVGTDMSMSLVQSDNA

For the molecule `CC(C)CC[C@@H](O)[C@](C)(O)[C@H]1CC[C@@]2(O)C3=CC(=O)[C@]4(O)C[C@@H](O)[C@@H](O)C[C@]4(C)[C@H]3[C@H](O)C[C@]12C` [Muristerone A], the “bioactivity in the CAT assay” value in data set [1] and in data set [3] was “Significant bioactivity” each time. The “CAT induction (fold induction)” value in data set [2] (50 μM steroid) is given as “about 30 fold”; in data set [2] (10 μm steroid) it was about 15 fold.
For [^3H]ponasterone A, the “binding of labelled ligand in cells infected by the recombinant baculovirus” value in data set [4] is recorded as “highly-significant increase in the binding”.
